Data reported in patent US20230265151A1, “GIP/GLP1 CO-AGONIST COMPOUNDS” (priority 2020, published 2023).
Like-named read-outs stand apart in the source and are kept apart here. *1 amine or outer side, *2 acyl side, *3 side chain or, on linkers, in order; H or OH if unused. Where a SMILES comes first, the peptide text is derived from it. Side-chain parts run from the residue outwards. [ ]: non-standard residue; d: D form. The star is where a group is joined. Decanoyl(10-(4-HOOC-PhO)) = O=C(O)c1ccc(OCCCCCCCCCC(=O)*)cc1; αMePhe(2-F) = C[C@](N)(Cc1ccccc1F)C(=O)O; γGlu = O=C(O)[C@H](CCC(=O)[*:2])N[*:1]; αMeY = C[C@](N)(Cc1ccc(O)cc1)C(=O)O; 4Pal = N[C@@H](Cc1ccncc1)C(=O)O; αMeL = CC(C)C[C@](C)(N)C(=O)O; Orn = NCCC[C@H](N)C(=O)O; AEEA = NCCOCCOCC(=O)O; Aib = CC(C)(N)C(=O)O

What was measured:
Assay type in all cases: cell-based
[1] = molecular target: hGLP-1R (Homo sapiens, UniProt P43220); experiment: Functional cAMP formation (HTRF) in HEK-293 clonal cells expressing hGLP-1R, 0.1% bovine casein, without or with 1.0% human serum albumin; set-up: expressed in transfected cells; conditions: for EC50: geometric mean; for Emax: percent of maximal response to GLP-1(7-36)NH2
Chain of hGLP-1R (P43220 24-463): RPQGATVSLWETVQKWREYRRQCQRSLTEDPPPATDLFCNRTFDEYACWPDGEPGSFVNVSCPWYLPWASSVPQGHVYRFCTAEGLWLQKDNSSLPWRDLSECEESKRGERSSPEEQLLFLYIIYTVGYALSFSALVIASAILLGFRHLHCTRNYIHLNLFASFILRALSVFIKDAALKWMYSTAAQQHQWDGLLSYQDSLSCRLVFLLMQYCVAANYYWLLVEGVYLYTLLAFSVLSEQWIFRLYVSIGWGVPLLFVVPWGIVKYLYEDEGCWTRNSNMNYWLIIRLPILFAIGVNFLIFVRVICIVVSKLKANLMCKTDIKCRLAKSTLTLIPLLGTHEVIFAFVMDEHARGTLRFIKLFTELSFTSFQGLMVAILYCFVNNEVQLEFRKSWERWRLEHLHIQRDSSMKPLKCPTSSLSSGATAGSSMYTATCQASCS
In short: (§1)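 Readings of the HTRF 665/620 nm ratio, which falls as cAMP rises, were converted to nM cAMP using a standard curve after 30 min peptide exposure at 37° C.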

[2] = molecular target: T1, hGIPR (Homo sapiens, UniProt P48546); experiment: Functional cAMP formation (HTRF) in HEK-293 clonal cells expressing hGIPR, 0.1% bovine casein, without or with 1.0% human serum albumin; conditions: for Emax: percent of maximal response to GIP(1-42)NH2; for EC50: geometric mean
T1 construct: expressed in transfected cells
T1 sequence (P48546 22-466): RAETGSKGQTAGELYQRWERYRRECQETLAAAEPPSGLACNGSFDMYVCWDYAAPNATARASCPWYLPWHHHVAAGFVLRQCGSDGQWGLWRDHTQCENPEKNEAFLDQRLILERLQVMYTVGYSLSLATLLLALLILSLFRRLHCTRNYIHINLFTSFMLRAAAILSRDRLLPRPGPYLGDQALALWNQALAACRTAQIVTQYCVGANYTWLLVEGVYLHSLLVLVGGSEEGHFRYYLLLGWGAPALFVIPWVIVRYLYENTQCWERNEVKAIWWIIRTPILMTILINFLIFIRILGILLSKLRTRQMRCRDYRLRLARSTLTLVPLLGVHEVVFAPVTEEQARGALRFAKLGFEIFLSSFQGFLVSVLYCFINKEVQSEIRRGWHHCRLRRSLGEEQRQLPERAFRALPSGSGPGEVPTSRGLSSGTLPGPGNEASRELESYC
In short: as §1

[3] = molecular target: T2, hGCGR (Homo sapiens, UniProt P47871); experiment: Functional cAMP formation (HTRF) in HEK-293 clonal cells expressing hGCGR, 0.1% bovine casein, without or with 1.0% human serum albumin
T2 construct: expressed in transfected cells
T2 sequence (P47871 26-477): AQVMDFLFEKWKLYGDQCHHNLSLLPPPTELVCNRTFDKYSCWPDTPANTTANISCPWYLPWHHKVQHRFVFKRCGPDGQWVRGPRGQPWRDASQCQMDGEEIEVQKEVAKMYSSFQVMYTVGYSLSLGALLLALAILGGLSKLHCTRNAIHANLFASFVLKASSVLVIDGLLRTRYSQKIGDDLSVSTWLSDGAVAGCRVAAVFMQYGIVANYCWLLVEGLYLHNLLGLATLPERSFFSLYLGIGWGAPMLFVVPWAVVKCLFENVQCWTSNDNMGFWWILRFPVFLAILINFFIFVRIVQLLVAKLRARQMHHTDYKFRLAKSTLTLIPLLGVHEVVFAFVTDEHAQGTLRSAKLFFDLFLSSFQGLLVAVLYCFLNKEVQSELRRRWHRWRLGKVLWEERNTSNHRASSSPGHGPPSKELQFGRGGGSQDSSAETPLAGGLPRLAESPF
In short: as §1

[4] = 0.1% bovine casein and 1.0% human serum albumin, 37° C., read-out: hGLP-1R EC50, nM (SEM, n)
[5] = HEK293, 0.1% bovine casein and 1.0% human serum albumin, 37° C., read-out: hGLP-1R Emax, % ± SEM
[6] = HEK293, 0.1% bovine casein and 1.0% human serum albumin, 37° C., read-out: hGIPR Emax, % ± SEM
[7] = 0.1% bovine casein and 1.0% human serum albumin, 37° C., geometric mean, read-out: hGCGR EC50, nM (SEM, n)
[8] = cAMP, incubated at 37° C., 0.1% bovine casein (no human serum albumin), read-out: hGIPR EC50, nM (SEM, n)
[9] = cAMP, incubated at 37° C., 0.1% bovine casein (no human serum albumin), geometric mean, read-out: hGCGR EC50, nM (SEM, n)

Row | Structure (SMILES) | EC50 [1, 4] | Emax [1, 5] | Emax ([1]; HEK293, cAMP, 37° C., 0.1% bovine casein, arithmetic mean, read-out: hGLP-1R Emax, % ± SEM) | EC50 ([1]; cAMP, 37° C., 0.1% bovine casein (no human serum albumin), read-out: hGLP-1R EC50, nM (SEM, n)) | Emax [2, 6] | Emax ([2]; HEK293, cAMP, 37° C., 0.1% bovine casein, arithmetic mean, read-out: hGIPR Emax, % ± SEM) | EC50 ([2]; cAMP, 37° C., 0.1% bovine casein (no human serum albumin), read-out: hGIPR EC50, nM (SEM, n)) | EC50 [3, 7] | EC50 ([3]; cAMP, 37° C., 0.1% bovine casein (no human serum albumin), geometric mean, read-out: hGCGR EC50, nM (SEM, n)) | Emax ([1]; HEK293, read-out: hGLP-1R Emax, % ± SEM, cAMP, 37° C., 0.1% bovine casein and 1.0% human serum albumin) | EC50 ([1]; hGLP-1R EC50, nM (SEM, n), cAMP, 37° C., 0.1% bovine casein (no human serum albumin)) | Emax ([2]; HEK293, read-out: hGIPR Emax, % ± SEM, cAMP, 37° C., 0.1% bovine casein and 1.0% human serum albumin) | Emax ([2]; HEK293, read-out: hGIPR Emax, % ± SEM, cAMP, 37° C., 0.1% bovine casein, arithmetic mean) | EC50 ([2]; hGIPR EC50, nM (SEM, n), cAMP, 37° C., 0.1% bovine casein (no human serum albumin)) | EC50 ([3]; hGCGR EC50, nM (SEM, n), cAMP, 37° C., 0.1% bovine casein (no human serum albumin), geometric mean) | EC50 ([3]; hGCGR EC50, nM (SEM, n), cAMP, 37° C., 0.1% bovine casein and 1.0% human serum albumin, geometric mean (SEM, n)) | EC50 ([2]; 0.1% bovine casein and 1.0% human serum albumin, 37° C., read-out: hGIPR EC50, nM (SEM, n)) | EC50 [2, 8] | EC50 [3, 9] | EC50 ([1]; cAMP, incubated at 37° C., 0.1% bovine casein (no human serum albumin), read-out: hGLP-1R EC50, nM (SEM, n))
1 | CC[C@H](C)[C@H](NC(=O)[C@H](CCCN)NC(=O)[C@H](CC(=O)O)NC(=O)[C@H](CC(C)C)NC(=O)[C@](C)(CC(C)C)NC(=O)[C@@H](NC(=O)[C@H](CO)NC(=O)[C@H](Cc1ccc(OC)cc1)NC(=O)[C@H](CC(=O)O)NC(=O)[C@H](CO)NC(=O)[C@@H](NC(=O)[C@](C)(Cc1ccccc1F)NC(=O)[C@@H](NC(=O)CNC(=O)[C@H](CCC(=O)O)NC(=O)C(C)(C)NC(=O)[C@@H](N)Cc1ccc(O)cc1)[C@@H](C)O)[C@@H](C)O)[C@@H](C)CC)C(=O)N[C@@H](C)C(=O)N[C@@H](CCC(N)=O)C(=O)NC(C)(C)C(=O)N[C@@H](CCCCNC(=O)COCCOCCNC(=O)COCCOCCNC(=O)CC[C@H](NC(=O)CCCCCCCCCCCCC(=O)O)C(=O)O)C(=O)N[C@@H](Cc1ccccc1)C(=O)N[C@H](C(=O)N[C@H](CCC(=O)O)C(=O)N[C@@](C)(Cc1ccc(O)cc1)C(=O)N[C@@H](CC(C)C)C(=O)N[C@H](C(=O)N[C@@H](CCCCNC(=O)COCCOCCNC(=O)COCCOCCNC(=O)CC[C@H](NC(=O)CCCCCCCCCCCCC(=O)O)C(=O)O)C(=O)NCC(=O)NCC(=O)N1CCC[C@H]1C(=O)N[C@@H](CO)C(=O)N[C@@H](CO)C(=O)NCC(=O)N[C@@H](C)C(=O)N1CCC[C@H]1C(=O)N1CCC[C@H]1C(=O)N1CCC[C@H]1C(=O)N[C@@H](CO)C(N)=O)[C@@H](C)CC)[C@@H](C)CC [Example 263] | 56.7 nM | 95.8% | 98.5% | 0.294 nM | 72.7% | 88.6% | 0.0214 nM | > 9950 nM | > 9950 nM |  |  |  |  |  |  |  |  |  |  | 
2 | CC[C@H](C)[C@H](NC(=O)[C@H](CCCN)NC(=O)[C@H](CC(=O)O)NC(=O)[C@H](CC(C)C)NC(=O)[C@](C)(CC(C)C)NC(=O)[C@@H](NC(=O)C(C)(C)NC(=O)[C@H](Cc1ccncc1)NC(=O)[C@H](CC(=O)O)NC(=O)[C@H](CO)NC(=O)[C@@H](NC(=O)[C@](C)(Cc1ccccc1F)NC(=O)[C@@H](NC(=O)CNC(=O)[C@H](CCC(=O)O)NC(=O)C(C)(C)NC(=O)[C@@H](N)Cc1ccc(O)cc1)[C@@H](C)O)[C@@H](C)O)[C@@H](C)CC)C(=O)N[C@@H](C)C(=O)N[C@@H](CCC(N)=O)C(=O)NC(C)(C)C(=O)N[C@@H](CCCN)C(=O)N[C@@H](Cc1ccccc1)C(=O)N[C@H](C(=O)N[C@@H](CCCCNC(=O)COCCOCCNC(=O)COCCOCCNC(=O)CC[C@H](NC(=O)CCCCCCCCCOc1ccc(C(=O)O)cc1)C(=O)O)C(=O)N[C@@](C)(Cc1ccc(O)cc1)C(=O)N[C@@H](CC(C)C)C(=O)N[C@H](C(=O)N[C@@H](CCCCNC(=O)COCCOCCNC(=O)COCCOCCNC(=O)CC[C@H](NC(=O)CCCCCCCCCOc1ccc(C(=O)O)cc1)C(=O)O)C(=O)NCC(=O)NCC(=O)N1CCC[C@H]1C(=O)N[C@@H](CO)C(=O)N[C@@H](CO)C(=O)NCC(=O)N[C@@H](C)C(=O)N1CCC[C@H]1C(=O)N1CCC[C@H]1C(=O)N1CCC[C@H]1C(=O)N[C@@H](CO)C(N)=O)[C@@H](C)CC)[C@@H](C)CC [Example 354] (H-Y[Aib]EGT[αMePhe(2-F)]TSD[4Pal][Aib]I[αMeL]LD[Orn]IAQ[Aib][Orn]FIK([AEEA-AEEA-γGlu-Decanoyl(10-(4-HOOC-PhO))])[αMeY]LIK([AEEA-AEEA-γGlu-Decanoyl(10-(4-HOOC-PhO))])GGPSSGAPPPS-NH2) |  |  |  |  |  |  |  |  |  | 95.9% | 0.505 nM | 67.5% | 95.4% | 0.0249 nM | > 9950 nM | > 9950 nM |  |  |  | 
3 | CC[C@H](C)[C@H](NC(=O)[C@H](CCCN)NC(=O)[C@H](CC(=O)O)NC(=O)[C@H](CC(C)C)NC(=O)[C@](C)(CC(C)C)NC(=O)[C@@H](NC(=O)[C@H](CO)NC(=O)[C@H](Cc1ccncc1)NC(=O)[C@H](CC(=O)O)NC(=O)[C@H](CO)NC(=O)[C@@H](NC(=O)[C@](C)(Cc1ccccc1F)NC(=O)[C@@H](NC(=O)CNC(=O)[C@H](CCC(=O)O)NC(=O)C(C)(C)NC(=O)[C@@H](N)Cc1ccc(O)cc1)[C@@H](C)O)[C@@H](C)O)[C@@H](C)CC)C(=O)N[C@@H](C)C(=O)N[C@@H](CCC(N)=O)C(=O)NC(C)(C)C(=O)N[C@@H](CCCCNC(=O)COCCOCCNC(=O)COCCOCCNC(=O)CC[C@H](NC(=O)CCCc1ccc(C(C)(C)C)cc1)C(=O)O)C(=O)N[C@@H](Cc1ccccc1)C(=O)N[C@H](C(=O)N[C@H](CCC(=O)O)C(=O)N[C@@](C)(Cc1ccc(O)cc1)C(=O)N[C@@H](CC(C)C)C(=O)N[C@H](C(=O)N[C@@H](CCC(=O)O)C(=O)NCC(=O)NCC(=O)N1CCC[C@H]1C(=O)N[C@@H](CO)C(=O)N[C@@H](CO)C(=O)NCC(=O)N[C@@H](C)C(=O)N1CCC[C@H]1C(=O)N1CCC[C@H]1C(=O)N1CCC[C@H]1C(=O)N[C@@H](CO)C(=O)N[C@@H](CCCCNC(=O)COCCOCCNC(=O)COCCOCCNC(=O)CC[C@H](NC(=O)CCCc1ccc(C(C)(C)C)cc1)C(=O)O)C(N)=O)[C@@H](C)CC)[C@@H](C)CC [Example 205] | 2.18 nM |  |  |  | 72.1% |  |  | > 9950 nM |  |  |  |  |  |  |  |  | 0.261 nM | 0.0264 nM | > 9950 nM | 
4 | CC[C@H](C)[C@H](NC(=O)[C@H](CC(C)C)NC(=O)[C@](C)(Cc1ccc(O)cc1)NC(=O)[C@@H](CCC(=O)O)NC(=O)[C@@H](NC(=O)[C@H](Cc1ccccc1)NC(=O)[C@H](CCC(=O)O)NC(=O)C(C)(C)NC(=O)[C@H](CCC(N)=O)NC(=O)[C@H](C)NC(=O)[C@H](CCCCNC(=O)COCCOCCNC(=O)COCCOCCNC(=O)CC[C@H](NC(=O)CCCCCCCCCCCCC(=O)O)C(=O)O)NC(=O)[C@H](CCCN)NC(=O)[C@H](CC(=O)O)NC(=O)[C@H](CC(C)C)NC(=O)[C@](C)(CC(C)C)NC(=O)[C@@H](NC(=O)C(C)(C)NC(=O)[C@H](Cc1ccc(O)cc1)NC(=O)[C@H](CC(=O)O)NC(=O)[C@H](CO)NC(=O)[C@@H](NC(=O)[C@](C)(Cc1ccccc1F)NC(=O)[C@@H](NC(=O)CNC(=O)[C@H](CCC(=O)O)NC(=O)C(C)(C)NC(=O)[C@@H](N)Cc1ccc(O)cc1)[C@@H](C)O)[C@@H](C)O)[C@@H](C)CC)[C@@H](C)CC)C(=O)N[C@@H](CCC(=O)O)C(=O)NCC(=O)NCC(=O)N1CCC[C@H]1C(=O)N[C@@H](CO)C(=O)N[C@@H](CO)C(=O)NCC(=O)N[C@@H](C)C(=O)N1CCC[C@H]1C(=O)N1CCC[C@H]1C(=O)N1CCC[C@H]1C(=O)N[C@@H](CO)C(=O)N[C@@H](CCCCNC(=O)COCCOCCNC(=O)COCCOCCNC(=O)CC[C@H](NC(=O)CCCCCCCCCCCCC(=O)O)C(=O)O)C(N)=O [Example 232] |  | 95.4% |  |  | 91.5% |  |  | > 9950 nM |  |  |  |  |  |  |  |  |  | 0.0192 nM | > 9950 nM | 0.565 nM
